The source of these data is patent US9493451B2 (Bionomics Limited, priority 2011, dated 2016).

Structures are written as SMILES.

The target of the assay is T1, Kv1.3 (Homo sapiens, UniProt P22001).
T1 construct: expressed in transfected cells; host or cells: CHO (Kv1.3/CHO)
T1 sequence (P22001 whole entry): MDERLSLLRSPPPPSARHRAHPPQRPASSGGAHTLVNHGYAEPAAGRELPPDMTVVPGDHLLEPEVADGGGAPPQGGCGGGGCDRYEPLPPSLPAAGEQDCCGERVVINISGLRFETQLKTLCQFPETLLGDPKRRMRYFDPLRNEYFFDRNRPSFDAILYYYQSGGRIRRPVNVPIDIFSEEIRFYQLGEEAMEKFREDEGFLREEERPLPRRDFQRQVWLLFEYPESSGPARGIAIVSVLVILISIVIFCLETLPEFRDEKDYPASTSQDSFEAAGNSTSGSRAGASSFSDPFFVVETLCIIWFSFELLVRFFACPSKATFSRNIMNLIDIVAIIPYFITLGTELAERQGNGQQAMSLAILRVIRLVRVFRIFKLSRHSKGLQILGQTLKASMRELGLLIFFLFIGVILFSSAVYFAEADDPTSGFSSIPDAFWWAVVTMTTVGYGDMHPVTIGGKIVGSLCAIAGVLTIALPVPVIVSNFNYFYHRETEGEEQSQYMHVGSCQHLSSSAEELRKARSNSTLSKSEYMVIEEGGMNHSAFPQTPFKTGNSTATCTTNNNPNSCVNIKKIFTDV
As to the kind of experiment: Electrophysiology: planar patch-clamp of Kv1.3 currents, IC50 from steady state current amplitude. Conditions: Kv1.3 electrophysiology, results according to Method D1, read-out: IC50 (Kv1.3 ephys steady state). The format is cell-based. As to the method:
The inhibition data shown for the compounds of the list below was calculated using the steady state current amplitude at the end of the depolarising pulse in patch clamp evaluations (as described in the Biology Protocols: 1. Electrophysiology).
Kv1.x currents were measured in Kv1.3/CHO or Kv1.5/CHO cells using a planar electrode version (Nanion Technologies GMBH) of the patch-clamp technique. Whole-cell Kv1.x current transients were evoked by 500 ms depolarising voltage pulses to +40 mV from a holding potential of −80 mV applied at 10 s intervals for Kv1.5 and at 30 s intervals for Kv1.3 to allow adequate time for recovery from inactivation. Cells were continuously bathed in a buffered saline solution containing (mM): 160 NaCl, 4.5 KCl, 2 CaCl2, 1 MgCl2, 5 glucose, 10 HEPES, pH 7.4, 290-310 mOsm·Kg^−1. The internal (pipette) solution contained (mM): 10 NaCl, 70 KF, 75 KCl, 2 MgCl2, 10 HEPES, 10 EGTA, pH 7.2, 290-310 mOsm·Kg^−1. Series resistance compensation (60-80%) was applied to cells in which the peak current amplitude exceeded 2 nA.
Compound Preparation and Potency Assessment
Compounds were initially dissolved in DMSO to 10 mM. After further dilution in DMSO, compounds were finally diluted in bath solution 1/200 (to give a final DMSO concentration of 0.5%) and applied directly to the recording chamber. Compounds were added at increasing concentrations allowing ample time for steady state block to be achieved between each concentration. Each compound was tested at 5-6 different concentrations on 2-3 cells. Compound IC50 values were determined by fitting the average normalised reduction of either the current integral or the steady state current amplitude at the end of the 500 ms depolarising pulse obtained at each compound concentration to the Hill equation. The IC50 data reported herein is based on the steady state calculation.
In general, IC50 refers to the concentration needed to halve the response being measured. Take `CC(C)C(c1ccc(OC(F)F)cc1)N(Cc1ccc(F)cn1)C(=O)C1CC1c1ccc(F)cc1` (stereo not shown) [Example 111]: the half-maximal inhibitory concentration (IC50) was in the range of 50 to 200 nM.

As for `CC(C)C(c1ccc(OC(F)F)cc1)N(Cc1cccnn1)C(=O)C1CC1c1ccc(F)cc1` (stereo not shown) [Example 113], the IC50 fell in the range of 200 to 1000 nM.

Regarding `CC(C)C(c1ccc(OC(F)F)cc1)N(Cc1cccnn1)C(=O)C1CC1c1ccc(F)cc1` (stereo not shown) [Example 114], the IC50 is 50 to 200 nM.

Regarding `CC(C)C(c1ccc(OC(F)F)cc1)N(Cc1ccc(F)cn1)C(=O)C1CC1c1ccc(F)cc1F` (stereo not shown) [Example 115], the 50% inhibitory concentration (IC50) was 50 to 200 nM.

As to `CCC(c1ccc(S(=O)(=O)CC)cc1)N(Cc1ccc(F)cn1)C(=O)C1CC1c1ccc(F)cc1` (stereo not shown) [Example 116], the IC50 fell in the range of 200 to 1000 nM.

For `CCC(c1ccc(S(=O)(=O)CC)cc1)N(Cc1ccc(F)cn1)C(=O)C1CC1c1ccc(F)cc1` (stereo not shown) [Example 117], the IC50 was in the range of 50 to 200 nM.

For the compound `CCC(c1ccc(S(=O)(=O)CC)cc1)N(Cc1cccnn1)C(=O)C1CC1c1ccc(F)cc1` (stereo not shown) [Example 118], the half-inhibitory concentration (IC50) was 1000 to 2000 nM.

In the case of `CCC(c1ccc(S(=O)(=O)CC)cc1)N(Cc1ccc(C(F)(F)F)nc1)C(=O)C1CC1c1ccc(F)cc1F` (stereo not shown) [Example 119], the IC50 was in the range of 50 to 200 nM.

In the case of `CCC(c1ccc(S(C)(=O)=O)cc1)N(Cc1ccc(C(F)(F)F)nc1)C(=O)C1CC1c1ccc(F)cc1` (stereo not shown) [Example 120], the IC50 was in the range of 200 to 1000 nM.

As to `CCC(c1ccc(S(C)(=O)=O)cc1)N(Cc1ccc(C(F)(F)F)nc1)C(=O)C1CC1c1ccc(F)cc1` (stereo not shown) [Example 121], the IC50 was in the range of 50 to 200 nM.

With `CCC(c1ccc(S(C)(=O)=O)cc1)N(Cc1ccc(F)cn1)C(=O)C1CC1c1ccc(F)cc1` (stereo not shown) [Example 122], the IC50 lay within 50 to 200 nM.

As for `CC(c1ccc(S(C)(=O)=O)cc1)N(Cc1cccnn1)C(=O)C1CC1c1ccc(F)cc1` (stereo not shown) [Example 123], the IC50 was 200 to 1000 nM.

Take `CCC(c1ccc(S(C)(=O)=O)cc1)N(Cc1cccnn1)C(=O)C1CC1c1ccc(F)cc1` (stereo not shown) [Example 124]: the IC50 is 200 to 1000 nM.

Regarding `CCC(c1ccc(S(C)(=O)=O)cc1)N(Cc1cccnn1)C(=O)C1CC1c1ccc(F)cc1` (stereo not shown) [Example 125], the IC50 lay within 1000 to 2000 nM.

In the case of `CC(c1ccc(S(C)(=O)=O)cc1)N(Cc1ccc(C(F)(F)F)nc1)C(=O)C1CC1c1ccc(F)cc1` (stereo not shown) [Example 126], the IC50 lay in the range of 200 to 1000 nM.

Turning to `CCC(c1ccc(S(C)(=O)=O)cc1)N(Cc1ccc(C(F)(F)F)nc1)C(=O)C1CC1c1ccc(F)cc1F` (stereo not shown) [Example 127], the IC50 fell in the range of 50 to 200 nM.

For the compound `CCC(c1ccc(S(C)(=O)=O)cc1)N(Cc1ccc(C(F)(F)F)nc1)C(=O)C1CC1c1ccc(F)cc1F` (stereo not shown) [Example 128], the IC50 lay in the range of 50 to 200 nM.

Turning to `CCC(c1ccc(S(C)(=O)=O)cc1)N(Cc1ccc(C(F)(F)F)nc1)C(=O)C1CC1c1ccc(F)cc1F` (stereo not shown) [Example 129], the IC50 lay in the range of 50 to 200 nM.

For `CCC(c1ccc(S(=O)(=O)C(C)C)cc1)N(Cc1cccnn1)C(=O)C1CC1c1ccc(F)cc1` (stereo not shown) [Example 130], the IC50 was in the range of 200 to 1000 nM.

As for `CN1CCC(C(c2ccc(OC(F)F)cc2)N(C(=O)C2CC2c2ccc(F)cc2)C2CCOCC2)CC1` (stereo not shown) [Example 140], the IC50 is 1000 to 2000 nM.

Turning to `CN1CCC(C(c2ccc(OC(F)F)cc2)N(Cc2ccc(F)cn2)C(=O)C2CC2c2ccc(F)cc2)CC1` (stereo not shown) [Example 142], the 50% inhibitory concentration (IC50) was 200 to 1000 nM.

For the compound `CCS(=O)(=O)c1cccc(C(C2CCN(C)CC2)N(Cc2ccc(F)cn2)C(=O)C2CC2c2ccc(F)cc2)c1` (stereo not shown) [Example 143], the IC50 was in the range of 200 to 1000 nM.

For the compound `CN1CCC(C(c2ccc(F)cc2F)N(Cc2ccc(F)cn2)C(=O)C2CC2c2ccc(F)cc2)CC1` (stereo not shown) [Example 144], the IC50 was 200 to 1000 nM.

For the compound `CN1CCC(C(c2ccc(F)cc2F)N(Cc2ncccc2F)C(=O)C2CC2c2ccc(F)cc2)CC1` (stereo not shown) [Example 145], the IC50 was 200 to 1000 nM.

In the case of `CN1CCC(C(c2cccc(C(F)(F)F)c2)N(Cc2ccc(F)cn2)C(=O)C2CC2c2ccc(F)cc2)CC1` (stereo not shown) [Example 146], the IC50 is 200 to 1000 nM.

Regarding `CN1CCC(C(c2cccc(C(F)(F)F)c2)N(Cc2ccc(F)cn2)C(=O)C2CC2c2ccc(F)cc2)CC1` (stereo not shown) [Example 147], the IC50 lay within 200 to 1000 nM.

Turning to `CN1CCC(C(c2cccc(C(F)(F)F)c2)N(Cc2cncc(F)c2)C(=O)C2CC2c2ccc(F)cc2)CC1` (stereo not shown) [Example 148], the IC50 fell in the range of 200 to 1000 nM.

Turning to `CN1CC(C(c2ccc(OC(F)F)cc2)N(Cc2ncccc2F)C(=O)C2CC2c2ccc(F)cc2)C1` (stereo not shown) [Example 150], the half-inhibitory concentration (IC50) lay within 200 to 1000 nM.

With `CN1CC(C(c2ccc(OC(F)F)cc2)N(Cc2ncccc2F)C(=O)C2CC2c2ccc(F)cc2)C1` (stereo not shown) [Example 151], the IC50 lay in the range of 200 to 1000 nM.

Regarding `O=C(C1CC1c1ccc(F)cc1)N(Cc1ccc(F)cn1)C(c1ccc(OC(F)F)cc1)C1CNC1` (stereo not shown) [Example 152], the IC50 fell in the range of 200 to 1000 nM.

On to `O=C(C1CC1c1ccc(F)cc1)N(Cc1ccc(F)cn1)C(c1ccc(OC(F)F)cc1)C1CNC1` (stereo not shown) [Example 153], for which the IC50 was 1000 to 2000 nM.

In the case of `CN1CC(C(c2ccc(OC(F)F)cc2)N(Cc2ccc(F)cn2)C(=O)C2CC2c2ccc(F)cc2)C1` (stereo not shown) [Example 154], the IC50 was 200 to 1000 nM.

As to `CN1CC(C(c2ccc(F)cc2)N(Cc2ncccc2F)C(=O)C2CC2c2ccc(F)cc2)C1` (stereo not shown) [Example 155], the IC50 is 200 to 1000 nM.

For `CN1CC(C(c2ccc(F)cc2)N(Cc2ncccc2F)C(=O)C2CC2c2ccc(F)cc2)C1` (stereo not shown) [Example 156], the IC50 is 50 to 200 nM.

Consider `O=C(C1CC1c1ccc(F)cc1)N(Cc1ncccc1F)C(c1ccc(F)cc1)C1CNC1` (stereo not shown) [Example 157], for which the 50% inhibitory concentration (IC50) was 200 to 1000 nM.

As for `O=C(C1CC1c1ccc(F)cc1)N(Cc1ccc(F)cn1)C(c1ccc(F)cc1)C1CNC1` (stereo not shown) [Example 158], the IC50 lay within 200 to 1000 nM.

As for `CN1CC(C(c2ccc(OC(F)(F)F)cc2)N(Cc2ccc(F)cn2)C(=O)C2CC2c2ccc(F)cc2)C1` (stereo not shown) [Example 159], the IC50 fell in the range of 200 to 1000 nM.

With `CN1CC(C(c2ccc(OC(F)F)cc2)N(Cc2ccc(C(F)(F)F)cn2)C(=O)C2CC2c2ccc(F)cc2)C1` (stereo not shown) [Example 160], the IC50 lay in the range of 200 to 1000 nM.

`CN1CC(C(c2ccc(OC(F)F)cc2)N(Cc2ccc(C(F)(F)F)cn2)C(=O)C2CC2c2ccc(F)cc2)C1` (stereo not shown) [Example 161]: the IC50 was in the range of 200 to 1000 nM.

`CN1CC(C(c2ccc(OC(F)(F)F)cc2)N(Cc2cncc(F)c2)C(=O)C2CC2c2ccc(F)cc2)C1` (stereo not shown) [Example 162]: the IC50 was 200 to 1000 nM.

Take `CN1CC(C(c2ccc(OC(F)(F)F)cc2)N(Cc2cncc(F)c2)C(=O)C2CC2c2ccc(F)cc2)C1` (stereo not shown) [Example 163]: the IC50 fell in the range of 200 to 1000 nM.

As to `O=C(C1CC1c1ccc(F)cc1)N(Cc1ncccc1F)C(c1ccc(F)cc1)C1CCOC1` (stereo not shown) [Example 171], the IC50 was 200 to 1000 nM.

Regarding `O=C(C1CC1c1ccc(F)cc1)N(Cc1ncccc1F)C(c1ccc(F)cc1)C1CCOC1` (stereo not shown) [Example 172], the IC50 lay in the range of 50 to 200 nM.

Take `O=C(C1CC1c1ccc(F)cc1)N(Cc1cccnn1)C(c1ccc(F)cc1)C1CCOC1` (stereo not shown) [Example 173]: the IC50 was in the range of 50 to 200 nM.

With `O=C(C1CC1c1ccc(F)cc1)N(Cc1cccnn1)C(c1ccc(F)cc1)C1CCOC1` (stereo not shown) [Example 174], the IC50 fell in the range of 50 to 200 nM.

For the compound `O=C(C1CC1c1ccc(F)cc1)N(Cc1ccc(F)cn1)C(c1ccc(F)cc1)C1CCOC1` (stereo not shown) [Example 175], the IC50 is 200 to 1000 nM.

Regarding `O=C(C1CC1c1ccc(F)cc1)N(Cc1ccc(F)cn1)C(c1ccc(F)cc1)C1CCOC1` (stereo not shown) [Example 176], the IC50 was in the range of 50 to 200 nM.

For `O=C(C1CC1c1ccc(F)c(F)c1)N(Cc1cccnn1)C(c1ccc(OC(F)F)cc1)C1CC1` (stereo not shown) [Example 180], the IC50 lay in the range of 50 to 200 nM.

For the compound `O=C(C1CC1c1ccc(F)cc1F)N(Cc1cccnn1)C(c1ccc(OC(F)F)cc1)C1CC1` (stereo not shown) [Example 182], the IC50 lay in the range of 50 to 200 nM.

As for `O=C(C1CC1c1ccc(F)cc1)N(Cc1cnc[nH]1)C(c1ccc(OC(F)F)cc1)C1CC1` (stereo not shown) [Example 183], the IC50 is 200 to 1000 nM.

Consider `O=C(C1CC1c1cccc(C(F)(F)F)c1)N(Cc1cccnn1)C(c1ccc(OC(F)F)cc1)C1CC1` (stereo not shown) [Example 184], for which the half-maximal inhibitory concentration (IC50) fell in the range of 200 to 1000 nM.

As to `O=C(C1CC1c1ccc(F)cc1)N(CCN1CCCC(F)(F)C1)C(c1ccc(OC(F)F)cc1)C1CC1` (stereo not shown) [Example 186], the IC50 was 200 to 1000 nM.

Take `Cn1ccnc1CN(C(=O)C1CC1c1ccc(F)cc1)C(c1ccc(OC(F)F)cc1)C1CC1` (stereo not shown) [Example 187]: the IC50 fell in the range of 200 to 1000 nM.

Consider `O=C(C1CC1c1ccccc1OC(F)(F)F)N(Cc1cccnn1)C(c1ccc(OC(F)F)cc1)C1CC1` (stereo not shown) [Example 188], for which the IC50 lay within 50 to 200 nM.

`Cn1cncc1CN(C(=O)C1CC1c1ccc(F)cc1)C(c1ccc(OC(F)F)cc1)C1CC1` (stereo not shown) [Example 189]: the IC50 lay within 200 to 1000 nM.

Regarding `Cn1cc(CN(C(=O)C2CC2c2ccc(F)cc2)C(c2ccc(OC(F)F)cc2)C2CC2)cn1` (stereo not shown) [Example 190], the IC50 was less than 50 nM.

Turning to `CCS(=O)(=O)c1cccc(C(C2CC2)N(CC(F)(F)c2ccccn2)C(=O)C2CC2c2ccc(F)cc2)c1` (stereo not shown) [Example 191], the IC50 is 50 to 200 nM.

In the case of `CCS(=O)(=O)c1cccc(C(C2CC2)N(Cc2ccncn2)C(=O)C2CC2c2ccc(F)cc2)c1` (stereo not shown) [Example 192], the IC50 lay within 200 to 1000 nM.
